# In patent US20020111274A1, “1-alkyl-3-[1-(substituted phenyl) benzotriazol-6-yl] uracils” (BASF Aktiengesellschaft, priority 2000, published 2002):
# Key:
# Design in all cases: scale not given here
# ECHOG Barnyardgrass [1] = test: Postemergence herbicidal evaluation, ECHOG; format: in vivo, Echinochloa crus-galli, (L.) Beau; conditions: postemergence spray, rated about two-three weeks after treatment
# How it was run: (§1)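 For this test, compound in an 80/20 acetone/water vehicle with 1.0% seed oil was sprayed over two-week-old seedlings at about 0.006 to 0.400 kg per hectare. Injury was assessed visually two to three weeks on.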
# ECHOG Barnyardgrass [2] = test: Preemergence herbicidal evaluation, ECHOG; format: in vivo, Echinochloa crus-galli, (L.) Beau; conditions: preemergence
# How it was run: (§2)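 First, seed is blended with potting soil and sown over roughly an inch of soil per cup. Next, the surface is sprayed with an aqueous acetone solution delivering about 0.013–0.800 kg/ha. Finally, cups are grown in the greenhouse and rated after 4–5 weeks.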
# SETVI Foxtail, Green = test: Postemergence herbicidal evaluation, SETVI; format: in vivo, Setaria viridis, (L.) Beau; conditions: postemergence spray, rated about two-three weeks after treatment
# How it was run: as §1
# ABUTH Velvetleaf = test: Preemergence herbicidal evaluation, ABUTH; format: in vivo, Abutilon theophrasti, Medic.; conditions: preemergence
# How it was run: as §2
# CASOB Sicklepod = test: Preemergence herbicidal evaluation, CASOB; format: in vivo, Cassia obtusifolia, L.; conditions: preemergence
# How it was run: as §2
# AMBEL Ragweed, Common = test: Postemergence herbicidal evaluation, AMBEL; format: in vivo, Ambrosia artemisifolia, L.; conditions: postemergence spray, rated about two-three weeks after treatment
# How it was run: as §1
# ZEAMX Corn, Field = test: Postemergence herbicidal evaluation, ZEAMX; format: in vivo, Zea mays, L. (Sammel-Bezeichnung); conditions: postemergence spray, rated about two-three weeks after treatment
# How it was run: as §1
# [3] = test system: CHEAL Lambsquarters, Common; test: Preemergence herbicidal evaluation, CHEAL; format: in vivo, Chenopodium album, L.; conditions: preemergence
# How it was run: as §2
# [4] = test system: IPOHE Morningglory, Ivyleaf; test: Preemergence herbicidal evaluation, IPOHE; format: in vivo, Ipomoea hederacea, (L.) Jacq.; conditions: preemergence
# How it was run: as §2
# [5] = test system: TRZAWR Wheat, Winter, cv Riband; test: Postemergence herbicidal evaluation, TRZAWR; format: in vivo, Triticum aestivum; conditions: postemergence spray, rated about two-three weeks after treatment
# How it was run: as §1
# [6] = test system: IPOHE Morningglory, Ivyleaf; test: Postemergence herbicidal evaluation, IPOHE; format: in vivo, Ipomoea hederacea, (L.) Jacq.; conditions: postemergence spray, rated about two-three weeks after treatment
# How it was run: as §1
# GALAP Galium = test: Preemergence herbicidal evaluation, GALAP; format: in vivo, Galium aparine; conditions: preemergence
# How it was run: as §2
smiles,measurement,setting,value
COC(=O)COc1ccc(-n2nnc3cc(F)c(-n4c(=O)cc(C(F)(F)F)n(C)c4=O)cc32)c(C)c1 [Example 39],Postemergence herbicidal rating ECHCG,ECHOG Barnyardgrass [1]; 0.008 kg/ha,0.0
same,Postemergence herbicidal rating ECHCG,ECHOG Barnyardgrass [1]; 0.016 kg/ha,0.0
same,Postemergence herbicidal rating ECHCG,ECHOG Barnyardgrass [1]; 0.032 kg/ha,0.0
same,Postemergence herbicidal rating ECHCG,ECHOG Barnyardgrass [1]; 0.062 kg/ha,3.0
same,ECHCG herbicidal rating,ECHOG Barnyardgrass [2]; rate 0.016 kg/ha,0.0
same,ECHCG herbicidal rating,ECHOG Barnyardgrass [2]; rate 0.032 kg/ha,0.0
same,ECHCG herbicidal rating,ECHOG Barnyardgrass [2]; rate 0.062 kg/ha,0.0
same,ECHCG herbicidal rating,ECHOG Barnyardgrass [2]; rate 0.125 kg/ha,0.0
same,Postemergence herbicidal rating SETVI,"SETVI Foxtail, Green; 0.008 kg/ha",0.0
same,Postemergence herbicidal rating SETVI,"SETVI Foxtail, Green; 0.016 kg/ha",0.0
same,Postemergence herbicidal rating SETVI,"SETVI Foxtail, Green; 0.032 kg/ha",0.0
same,Postemergence herbicidal rating SETVI,"SETVI Foxtail, Green; 0.062 kg/ha",2.0
same,ABUTH herbicidal rating,ABUTH Velvetleaf; rate 0.016 kg/ha,0.0
same,ABUTH herbicidal rating,ABUTH Velvetleaf; rate 0.032 kg/ha,5.0
same,ABUTH herbicidal rating,ABUTH Velvetleaf; rate 0.062 kg/ha,9.0
same,ABUTH herbicidal rating,ABUTH Velvetleaf; rate 0.125 kg/ha,9.0
same,CASOB herbicidal rating,CASOB Sicklepod; rate 0.016 kg/ha,0.0
same,CASOB herbicidal rating,CASOB Sicklepod; rate 0.032 kg/ha,0.0
same,CASOB herbicidal rating,CASOB Sicklepod; rate 0.062 kg/ha,0.0
same,CASOB herbicidal rating,CASOB Sicklepod; rate 0.125 kg/ha,0.0
same,Postemergence herbicidal rating AMBEL,"AMBEL Ragweed, Common; 0.008 kg/ha",0.0
same,Postemergence herbicidal rating AMBEL,"AMBEL Ragweed, Common; 0.016 kg/ha",0.0
same,Postemergence herbicidal rating AMBEL,"AMBEL Ragweed, Common; 0.032 kg/ha",6.0
same,Postemergence herbicidal rating AMBEL,"AMBEL Ragweed, Common; 0.062 kg/ha",7.0
same,Postemergence herbicidal rating ZEAMX,"ZEAMX Corn, Field; 0.008 kg/ha",7.0
same,Postemergence herbicidal rating ZEAMX,"ZEAMX Corn, Field; 0.016 kg/ha",7.5
same,Postemergence herbicidal rating ZEAMX,"ZEAMX Corn, Field; 0.032 kg/ha",7.5
same,Postemergence herbicidal rating ZEAMX,"ZEAMX Corn, Field; 0.062 kg/ha",7.5
same,CHEAL herbicidal rating,[3]; rate 0.016 kg/ha,3.0
same,CHEAL herbicidal rating,[3]; rate 0.032 kg/ha,3.0
same,CHEAL herbicidal rating,[3]; rate 0.062 kg/ha,9.0
same,CHEAL herbicidal rating,[3]; rate 0.125 kg/ha,9.0
same,IPOHE herbicidal rating,[4]; rate 0.016 kg/ha,0.0
same,IPOHE herbicidal rating,[4]; rate 0.032 kg/ha,0.0
same,IPOHE herbicidal rating,[4]; rate 0.062 kg/ha,0.0
same,IPOHE herbicidal rating,[4]; rate 0.125 kg/ha,3.0
same,Postemergence herbicidal rating TRZAWR,[5]; 0.008 kg/ha,2.5
same,Postemergence herbicidal rating TRZAWR,[5]; 0.016 kg/ha,3.0
same,Postemergence herbicidal rating TRZAWR,[5]; 0.032 kg/ha,3.5
same,Postemergence herbicidal rating TRZAWR,[5]; 0.062 kg/ha,5.5
same,Postemergence herbicidal rating IPOHE,[6]; 0.008 kg/ha,9.0
same,Postemergence herbicidal rating IPOHE,[6]; 0.016 kg/ha,8.0
same,Postemergence herbicidal rating IPOHE,[6]; 0.032 kg/ha,9.0
same,Postemergence herbicidal rating IPOHE,[6]; 0.062 kg/ha,9.0
same,GALAP herbicidal rating,GALAP Galium; rate 0.016 kg/ha,0.0
same,GALAP herbicidal rating,GALAP Galium; rate 0.032 kg/ha,0.0
same,GALAP herbicidal rating,GALAP Galium; rate 0.062 kg/ha,0.0
same,GALAP herbicidal rating,GALAP Galium; rate 0.125 kg/ha,7.0
